Broadly, the EC50 is the concentration that produces a half-maximal response.

The source of these data is patent publication US11844802B2, “Compounds and compositions for ossification and methods related thereto” (Emory University, priority 2010, dated 2023).

One data set deals with C2C12 myoblasts. Nature of the data set: BMP-2 responsiveness / osteoblastic transdifferentiation of C2C12 myoblasts, multiple assays. It is filed as cell-based, Mouse. From the text:
Derivatives with desired attributes can be evaluated using the procedure described below.
Compounds were selected by virtual screening for development based on computational modeling, docking, and in silico screening. […] (See Sangadala et al. (2007) Proteins 68: 690-701 and FIG. 2). The BMP-potentiating activities of compounds may be evaluated by monitoring several markers of the osteoblastic phenotype corresponding to various time points during phenotype differentiation of C2C12 cells towards terminally differentiated osteoblasts.

Data set [1] deals with alkaline phosphatase activity. Briefly: BMP-2 induced alkaline phosphatase (ALP) enzyme activity assay in C2C12 cells. It is filed as cell-based, Mouse. As for the experimental part:
(§1) Mouse C2C12 cells and Dulbecco's modified Eagle's medium (DMEM) were purchased from ATCC (Manassas, VA). The non-heat inactivated fetal bovine serum (FBS) was purchased from HyClone Laboratories, Inc. (Logan, UT). The C2C12 cells at passages 5 to 10 were subcultured in T-75 cm^2 flasks in DMEM supplemented with 10% FBS at 37° C. in 5% CO2 with humidification. When the flasks reached 80% confluence, the cells were trypsinized and seeded in triplicate at 200,000 cells/well in a 6-well plate for quantitative real-time RT-PCR and alkaline phosphatase (ALP) assays or at 50,000 cells/well in a 12-well plate for the dual-luciferase reporter assay.
The C2C12 cells were plated at 200,000 cells/well in 6-well plates and grown overnight in DMEM containing 10% FBS. On day 2, the culture medium was replaced with DMEM containing 2% FBS and the cells were treated with various concentrations of the Smurf1-interacting compound for 24 hours. On day 3, the medium was replaced with fresh DMEM containing 2% FBS and the cells were treated with 50 ng/ml of BMP-2 with or without compound for 72 hours. The cells were washed with phosphate-buffered saline (PBS) and lysed by addition of lysis buffer (10 mM Tris-HCl pH 8.0, 1 mM MgCl2 and 0.5% Triton X-100). The cell lysates were centrifuged for 5 minutes at 13,000×g. The supernatant was removed and the aliquots were assayed for ALP activity and protein amount. The ALP activity was measured in triplicate using an ALP assay kit (Sigma-Aldrich, St. Louis, MO) in microtiter plates. The protein amount was determined with Bio-Rad™ protein assay reagent (Bio-Rad, Hercules, CA) using bovine serum albumin (BSA) as a standard. The ALP activity (nmoles of p-nitrophenol per ml) was normalized to the protein amount (nmoles of p-nitrophenol per μg).
(§2) The EC50 values were calculated by determining the concentration by which 50% of maximum activity was reached using the sigmoidal fit equation. The 50% effective concentrations were determined with the standard curve analysis of SigmaPlot™ 8.02. […]

For another data set, the system named is osteocalcin mRNA. Nature of the data set: BMP-2 induced osteocalcin mRNA level, quantitative real-time RT-PCR in C2C12 cells. It is filed as cell-based, Mouse. To be noted: for increase in osteocalcin mRNA by BMP-2 alone: compared to no treatment control. As for the experimental part:
as §1
(§3) The C2C12 cells were plated at a density of 200,000 cells/well in 6-well plates and grown overnight in DMEM containing 10% FBS. On day 2, the culture medium was replaced with DMEM containing 2% FBS and the cells were treated with various concentrations of Smurf1-interacting compound (diluted from 10 mg/ml stock solutions prepared in DMSO) for 24 hours. In control cultures, a DMSO solvent concentration of 0.01% (v/v) was applied. On day 3, medium was replaced with fresh DMEM containing 2% FBS and the cells were treated with BMP-2 for 24 hours.
(§4) Total RNA was harvested using the RNeasy Mini Kit according to the manufacturer's instructions (Qiagen, Valencia, CA). The harvested RNA was digested with RNase-free DNase I (Qiagen, Valencia, CA) to remove DNA contamination. The concentration of the isolated RNA was determined by measuring the absorbance at 260 nm wave length with a spectrophotometer (Model DU 640, Beckman Coulter, Inc. Brea, CA). The ratio of A260/A280 was between 1.6 and 1.8. Reverse transcription was carried out to synthesize cDNA in a 100 μl volume with 2 μg of total RNA, 10×RT buffer, 5.5 mM MgCl2, 2 mM dNTP mixture, 0.125 μM oligo d(T), 0.125 μM random primer, 40 Units of RNase inhibitor, and 125 Units of MultiScribe™ (Applied Biosystems, Foster City, CA) for 10 minutes at 25° C., 30 minutes at 48° C., and 5 minutes at 95° C.
Quantitative real-time RT-PCR was performed to determine the mRNA expression level of ALP and osteocalcin. The sequences of the primers were as follows: ALP (forward, 5′-TCAGGGCAATGAGGTCACATC-3′; (SEQ ID NO: 6), reverse, 5′-CAC AAT GCC CAC GGA CTT C-3′) (SEQ ID NO: 7), osteocalcin (forward, 5′-CGGCCCTGAGTCTGACAAAG-3′; (SEQ ID NO: 8) reverse, 5′-CTCGTCACAAGCAGGGTCAA-3′ (SEQ ID NO: 9)). Twenty-five microliters of reaction volume included 5 μl of cDNA, 0.5 μl of 10 μM of each primer and 12.5 μl of 2×SYBR green master mix (Applied Biosystems). Real-time PCR was performed with the following three-step protocol: step 1, 50° C. for 2 minutes; step 2, 95° C. for 10 minutes; step 3, 40 cycles of 95° C. for 15 seconds and 62° C. for 1 minute using the 7500 real-time PCR System (Applied Biosystems, Foster City, CA). To confirm the amplification specificity, the PCR products were subjected to a dissociation curve analysis. The threshold cycles (Ct) of each reaction were normalized to those obtained for 18S mRNA using the −ΔΔCt method (Applied Biosystems). All PCR reactions were performed in triplicate.
as §2
A general note: Real-time PCR tracks product formation cycle by cycle.

Another data set concerns C2C12 cells. Nature of the data set: cell lifting / cell number observation in C2C12 reporter assay. The conditions noted are these: reduced number of cells at end of experiment. It is filed as cell-based, Mouse. As for the experimental part:
Compounds were tested experimentally for their ability to potentiate BMP-2 activity in our luciferase reporter assay using C2C12 cells (FIGS. 5A and 5B).
A general note: In a reporter assay the amount or activity of a reporter protein is the signal.

The subject of data set [2] is alkaline phosphatase mRNA. Nature of the data set: BMP-2 induced alkaline phosphatase mRNA level, quantitative real-time RT-PCR in C2C12 cells. It is filed as cell-based, Mouse. The conditions noted are these: for increase in alkaline phosphatase mRNA by BMP-2 alone: compared to no treatment control. As for the experimental part: as §1, §3, §4
Quantitative real-time RT-PCR was performed to determine the mRNA expression level of ALP and osteocalcin. The sequences of the primers were as follows: ALP (forward, 5′-TCAGGGCAATGAGGTCACATC-3′; (SEQ ID NO: 6), reverse, 5′-CAC AAT GCC CAC GGA CTT C-3′) (SEQ ID NO: 7), osteocalcin (forward, 5′-CGGCCCTGAGTCTGACAAAG-3′; (SEQ ID NO: 8) reverse, 5′-CTCGTCACAAGCAGGGTCAA-3′ (SEQ ID NO: 9)). Twenty-five microliters of reaction volume included 5 μl of cDNA, 0.5 μl of 10 μM of each primer and 12.5 μl of 2×SYBR green master mix (Applied Biosystems). […]

In a further data set the test system is rat model. Nature of the data set: in vivo bone-formation in rat model (ectopic bone induction). To be noted: without any BMP-2.
For data set [3], the system named is BMP-specific Smad1-driven 9×GCCG reporter. Briefly: BMP-2 induced Smad1-driven dual-luciferase reporter assay in C2C12 cells. It is filed as cell-based, Mouse. To be noted: BMP-2 1 ng/ml.
Description: A cell-based method was optimized to monitor BMP-2 induced responses. […] One can monitor transcriptional activity driven by activated Smad1 in C2C12 cells in a cell-based assay utilizing a Smad1-specific luciferase reporter plasmid containing a multimerized -GCCG- motif (9 copies). […] A concentration range of BMP-2 required for activating the reporter assay was established.
A BMP-specific Smad1-driven 9×GCCG (a consensus binding sequence for Smad1) reporter plasmid was used. The C2C12 cells were trypsinized and seeded in triplicate wells at 50,000 cells/well in 12-well plates on day 1. On day 2, the cells were cotransfected with the 9×GCCG-reporter construct and the renilla-luciferase control vector using SuperFect (Qiagen, Valencia, CA) for 24 hrs. […] On day 5, the luciferase activities were measured in 20 μl of cell-lysate using the dual-luciferase assay system (Promega, Madison, WI) with a luminometer (LumiCount™; Packard Bioscience, Meriden, CT) following the manufacturer's instructions. The luciferase activity was expressed as relative units of luciferase (RUL; a ratio of firefly luciferase to renilla luciferase activity). […]

As to `CC1(C)N=C(N)N=C(N)N1c1ccc(Cl)cc1` [Compound 12X, 1-(4-chlorophenyl)-4,6-diamino-1,2-dihydro-2,2-dimethyl-1,3,5-triazine], in the data set with C2C12 myoblasts, the “potentiation of BMP-2 induced transdifferentiation of C2C12 myoblasts into the osteoblastic phenotype” value was “potentiate the effects of BMP-2”. The “efficacy relative to other derivatives in cell-based alkaline phosphatase assay” value in data set [1] (screening, FIG. 9) was “more efficacious”.

As for `C=Cc1nc(N)nc(N)n1` [Compound 12, 2,4-diamino-6-vinyl-1,3,5-triazine], the EC50 in the data set with osteocalcin mRNA (Mus musculus, C2C12, BMP-2 20 ng/ml, estimated, read-out: EC50, expression of osteocalcin mRNA) was 1.5 to 5.3 µM; in data set [1] (Mus musculus, C2C12, BMP-2 50 ng/ml, estimated) it was 3.7 µM; in data set [2] (Mus musculus, C2C12, BMP-2 20 ng/ml, estimated, read-out: EC50, expression of alkaline phosphatase mRNA), 1.5 to 5.3 µM; in data set [3] (Mus musculus, C2C12, calculated from the Hill plot, read-out: EC50, potentiation of BMP-2 luciferase reporter activity) it was 2.6 µM. Moreover, the “effect of compound alone on osteocalcin mRNA” value in the data set with osteocalcin mRNA (absence of BMP-2) is “no significant effect”. For the same molecule, the “maximal increase in BMP-induced osteocalcin mRNA level” value in the data set on osteocalcin mRNA (compound 1.0 μg/ml, BMP-2 20 ng/ml, compared to BMP-2 alone, P<0.05) is on record as 4.4 fold. In addition, the “potentiation of BMP-2 induced transdifferentiation of C2C12 myoblasts into the osteoblastic phenotype” value in the data set with C2C12 myoblasts is given as “potentiate the effects of BMP-2”. In the data set with C2C12 myoblasts (C2C12 cells, BMP-2 induced markers), the “effective dose of compound among multiple assays” value lay within 0.275 to 1.0 µg/mL. Further, the “effect on BMP-2-induced response” value in the data set with C2C12 myoblasts (dose of 0.1 μg/ml) was “elevated the BMP-2-induced response significantly”. For the same molecule, the “concentration causing lifting of some cells from the plates” value in the data set with C2C12 cells is “higher than 1.5 ug/ml”. Further, the “maximal increase in BMP-2 induced ALP activity” value in data set [1] (compound 1.0 μg/ml, BMP-2 50 ng/ml, compared to BMP-2 alone, P<0.001) came out at 4.8 fold. Also, in data set [2] (BMP-2 20 ng/ml, compared to BMP-2 alone, P<0.05), the “maximal increase in BMP-induced alkaline phosphatase mRNA level” value was 3.5 fold. Moreover, the “bone-formation in rat model” value with rat model was “capable of inducing bone-formation”. For the same molecule, the “optimum enhancement of BMP-2 induced luciferase activity” value in data set [3] (compound 1.0 μg/ml, compared to BMP-2 alone, P<0.05) was 3.8 fold.

B1: BMP-2: bone morphogenetic protein, growth factor known to induce bone and cartilage formation and play a role in osteoblast differentiation (protein, listed as Homo sapiens)
chain: MVAGTRCLLALLLPQVLLGGAAGLVPELGRRKFAAASSGRPSSQPSDEVLSEFELRLLSMFGLKQRPTPSRDAVVPPYMLDLYRRHSGQPGSPAPDHRLERAASRANTVRSFHHEESLEELPETSGKTTRRFFFNLSSIPTEEFITSAELQVFREQMQDALGNNSSFHHRINIYEIIKPATANSKFPVTRLLDTRLVNQNASRWESFDVTPAVMRWTAQGHANHGFVVEVAHLEEKQGVSKRHVRISRSLHQDEHSWSQIRPLLVTFGHDGKGHPLHKREKRQAKHKQRKRLKSSCKRHPLYVDFSDVGWNDWIVAPPGYHAFYCHGECPFPLADHLNSTNHAIVQTLVNSVNSKIPKACCVPTELSAISMLYLDENEKVVLKNYQDMVVEGCGCR
For the molecule B1, the entries for the “increase in osteocalcin mRNA by BMP-2 alone” value in the data set with osteocalcin mRNA (absence of DMSO) and in the data set with osteocalcin mRNA (presence of DMSO (0.01%)) were 9 fold and 7 fold, respectively. Moreover, the “increase in alkaline phosphatase mRNA by BMP-2 alone” value in data set [2] (absence of DMSO) is reported as 43 fold; in data set [2] (presence of DMSO (0.01%)), 51 fold.
